Measurements from publication PMC7031696 (Cell chemical biology, 2019).
Read-outs that look alike come from different tables or passages of the source.

What was measured:
[1] = test system: 3D7-MR4 trophozoite parasite-infected RBCs; test: Metabolomic profiling (hydrophilic metabolite changes, UHPLC-MS); assay type: cell-based, Plasmodium falciparum
[2] = test system: asynchronous 3D7-A10 parasite cultures; test: Standard 72-h exposure asexual blood stage susceptibility assay (IC50^72h); assay type: cell-based, Plasmodium falciparum; settings: Plasmodium falciparum, 3D7, 72 h, read-out: Overall (72hr assay) Mean IC50 (IC50^72h)
[3] = test system: Plasmodium falciparum 3D7-A10 parasites; test: Stage specificity assay (8-h exposure of synchronized stages, IC50^8h); assay type: cell-based; settings: for IC50: Plasmodium falciparum

COc1cc(-c2nc(-c3ccccc3)c(-c3ccccc3)[nH]2)ccc1OCCN(C)C [MMV027496]
Log2(fold changes) 3-phosphoglycerate ([1]; metabolite 3-phosphoglycerate, log2 fold change): 0.0073 | Log2(fold changes) 4-Pyridoxic acid ([1]; metabolite 4-Pyridoxic acid, log2 fold change): -0.0867 | Log2(fold changes) 4-aminobutyrate ([1]; metabolite 4-aminobutyrate, log2 fold change): -0.1160 | Log2(fold changes) 4-phosphopantetheine ([1]; metabolite 4-phosphopantetheine, log2 fold change): -1.1166 | Log2(fold changes) 4-phosphopantothenate ([1]; metabolite 4-phosphopantothenate, log2 fold change): -0.2287 | Log2(fold changes) 5-aminopentanoic acid ([1]; metabolite 5-aminopentanoic acid, log2 fold change): 0.0000 | Log2(fold changes) 5-methyl-THF ([1]; metabolite 5-methyl-THF, log2 fold change): 0.0000 | Log2(fold changes) 5-phosphoribosyl-1-pyrophosphate ([1]; metabolite 5-phosphoribosyl-1-pyrophosphate, log2 fold change): -0.7343 | Log2(fold changes) 6-phospho-D-gluconate ([1]; metabolite 6-phospho-D-gluconate, log2 fold change): -0.1141 | Log2(fold change) HVDD ([1]; metabolite HVDD): -2.1597 | Log2(fold change) Hydroxyisocaproic acid ([1]; metabolite Hydroxyisocaproic acid): 0.0000 | Log2(fold change) IDP ([1]; metabolite IDP): 0.0000 | Log2(fold change) IMP ([1]; metabolite IMP): 0.0628 | Log2(fold change) Inositol ([1]; metabolite Inositol): 0.0000 | Log2(fold change) Isopentyl-PP ([1]; metabolite Isopentyl-PP): 0.0000 | Log2(fold change) L-arginino-succinate ([1]; metabolite L-arginino-succinate): 0.8581 | Log2(fold change) LD ([1]; metabolite LD): -0.0397 | Log2(fold change) Myristoyl/tetradecanoyl-CoA ([1]; metabolite Myristoyl/tetradecanoyl-CoA): 0.0000 | Log2(fold change) N-Acetyl-L-alanine ([1]; metabolite N-Acetyl-L-alanine): 0.1987 | Log2(fold change) N-acetyl-L-ornithine ([1]; metabolite N-acetyl-L-ornithine): 0.0000 | Log2(fold change) N-acetyl-glucosamine-1/6-phosphate ([1]; metabolite N-acetyl-glucosamine-1/6-phosphate): -0.0707 | Log2(fold change) N-acetyl-glutamate ([1]; metabolite N-acetyl-glutamate): -0.1403 | Log2(fold change) N-acetyl-glutamine ([1]; metabolite N-acetyl-glutamine): -1.0773 | Log2(fold change) N-carbamoyl-L-aspartate ([1]; metabolite N-carbamoyl-L-aspartate): 0.5722 | Log2(fold change) NAD+ ([1]; metabolite NAD+): -0.1059 | Log2(fold change) NADH ([1]; metabolite NADH): 2.0630 | Log2(fold change) NADP+ ([1]; metabolite NADP+): -0.2030 | Log2(fold change) NADPH ([1]; metabolite NADPH): 1.8886 | Log2(fold change) O-acetyl-L-serine ([1]; metabolite O-acetyl-L-serine): 0.0000 | Log2(fold change) Octoluse 8/1P ([1]; metabolite Octoluse 8/1P): 0.3428 | Log2(fold change) Octoluse Bisphosphate ([1]; metabolite Octoluse Bisphosphate): 0.2244 | Log2(fold change) PD ([1]; metabolite PD): -1.0804 | Log2(fold change) PE ([1]; metabolite PE): -1.1988 | Log2(fold change) PEE ([1]; metabolite PEE): -0.8148 | Log2(fold change) PEEK ([1]; metabolite PEEK): 0.0064 | Log2(fold change) PVNF ([1]; metabolite PVNF): -2.2754 | Log2(fold change) Pyroglutamic acid ([1]; metabolite Pyroglutamic acid): 0.2204 | Log2(fold change) Pyrophosphate ([1]; metabolite Pyrophosphate): 0.0000 | Log2(fold change) Ribose-5-phosphate ([1]; metabolite Ribose-5-phosphate): -0.4834 | Log2(fold change) S-adenosyl-L-homocysteine ([1]; metabolite S-adenosyl-L-homocysteine): 0.0314 | Log2(fold change) S-adenosyl-L-methioninamine ([1]; metabolite S-adenosyl-L-methioninamine): 0.0000 | Log2(fold change) S-adenosyl-L-methionine ([1]; metabolite S-adenosyl-L-methionine): 0.0000 | Log2(fold change) S-methyl-5'-thioadenosine ([1]; metabolite S-methyl-5'-thioadenosine): -0.0546 | Log2(fold change) SD ([1]; metabolite SD): -0.8375 | Log2(fold change) SDL ([1]; metabolite SDL): -2.4484 | Log2(fold change) SID ([1]; metabolite SID): 0.0000 | Log2(fold change) Sedoheptulose bisphosphate ([1]; metabolite Sedoheptulose bisphosphate): 0.5967 | Log2(fold change) Thiamine pyrophosphate ([1]; metabolite Thiamine pyrophosphate): 0.1905 | Log2(fold changes) UDP-D-glucose ([1]; metabolite UDP-D-glucose, log2 fold change): 0.0680 | Log2(fold changes) UDP-D-glucuronate ([1]; metabolite UDP-D-glucuronate, log2 fold change): -0.0322 | Log2(fold changes) UDP-N-acetyl-glucosamine ([1]; metabolite UDP-N-acetyl-glucosamine, log2 fold change): -0.0747 | Log2(fold changes) UDP ([1]; metabolite UDP, log2 fold change): -0.5781 | Log2(fold changes) UMP ([1]; metabolite UMP, log2 fold change): 0.0423 | Log2(fold changes) UTP ([1]; metabolite UTP, log2 fold change): -0.1765 | Log2(fold change) hydroxyphenylpyruvate ([1]; metabolite hydroxyphenylpyruvate): 0.0000 | Log2(fold change) hydroxyproline/Aminolevulinate ([1]; metabolite hydroxyproline/Aminolevulinate): -0.0266 | Log2(fold change) hypoxanthine ([1]; metabolite hypoxanthine): 0.1428 | Log2(fold change) indole ([1]; metabolite indole): 0.0089 | Log2(fold change) inosine ([1]; metabolite inosine): -0.2181 | Log2(fold change) isoleucine ([1]; metabolite isoleucine): 0.0175 | Log2(fold change) lactate ([1]; metabolite lactate): -0.1982 | Log2(fold change) leucine ([1]; metabolite leucine): -0.1115 | Log2(fold change) lysine ([1]; metabolite lysine): 0.0000 | Log2(fold change) malate ([1]; metabolite malate): -0.3708 | Log2(fold change) maleic acid ([1]; metabolite maleic acid): -0.2294 | Log2(fold change) methionine ([1]; metabolite methionine): 0.2631 | Log2(fold change) myo-inositol ([1]; metabolite myo-inositol): 0.0000 | Log2(fold change) nicotinamide mononucleotide ([1]; metabolite nicotinamide mononucleotide): 0.0000 | Log2(fold change) nicotinate ([1]; metabolite nicotinate): 0.0117 | Log2(fold change) ornithine ([1]; metabolite ornithine): 0.0000 | Log2(fold change) orotate ([1]; metabolite orotate): 1.3653 | Log2(fold change) orotidine-5'-phosphate ([1]; metabolite orotidine-5'-phosphate): 0.1863 | Log2(fold change) oxaloacetate ([1]; metabolite oxaloacetate): 0.0000 | Log2(fold change) p-aminobenzoate ([1]; metabolite p-aminobenzoate): 0.0000 | Log2(fold change) p-hydroxybenzoate ([1]; metabolite p-hydroxybenzoate): 0.0000 | Log2(fold change) pantothenate ([1]; metabolite pantothenate): 0.0065 | Log2(fold change) phenylalanine ([1]; metabolite phenylalanine): -0.1381 | Log2(fold change) phenylpyruvate ([1]; metabolite phenylpyruvate): 0.0000 | Log2(fold change) phosphoenolpyruvate ([1]; metabolite phosphoenolpyruvate): -0.0480 | Log2(fold change) prephenate ([1]; metabolite prephenate): 0.0000 | Log2(fold change) proline ([1]; metabolite proline): -0.1946 | Log2(fold change) pyridoxine ([1]; metabolite pyridoxine): 0.0000 | Log2(fold change) pyruvate ([1]; metabolite pyruvate): -0.1903 | Log2(fold change) riboflavin ([1]; metabolite riboflavin): -0.1484 | Log2(fold change) ribose ([1]; metabolite ribose): 0.0000 | Log2(fold change) ribose-phosphate ([1]; metabolite ribose-phosphate): 0.0000 | Log2(fold change) ribulose-5-phosphate ([1]; metabolite ribulose-5-phosphate): -0.2217 | Log2(fold change) serine ([1]; metabolite serine): 0.1164 | Log2(fold change) sn-glycerol-3-phosphate ([1]; metabolite sn-glycerol-3-phosphate): 0.2423 | Log2(fold change) succinate/Methylmalonic acid ([1]; metabolite succinate/Methylmalonic acid): 0.0338 | Log2(fold change) succinyl-CoA/methylmalonyl-CoA ([1]; metabolite succinyl-CoA/methylmalonyl-CoA): 0.0865 | Log2(fold change) taurine ([1]; metabolite taurine): 0.0000 | Log2(fold change) thiamine ([1]; metabolite thiamine): 0.0000 | Log2(fold change) threonine/homoserine ([1]; metabolite threonine/homoserine): -0.2212 | Log2(fold change) thymidine ([1]; metabolite thymidine): 0.0000 | Log2(fold changes) thymine ([1]; metabolite thymine, log2 fold change): 0.0000 | Log2(fold changes) trehalose-6-Phosphate ([1]; metabolite trehalose-6-Phosphate, log2 fold change): 0.0000 | Log2(fold changes) tryptophan ([1]; metabolite tryptophan, log2 fold change): -0.0286 | Log2(fold changes) tyrosine ([1]; metabolite tyrosine, log2 fold change): 0.0383 | Log2(fold changes) uridine ([1]; metabolite uridine, log2 fold change): 0.0000 | IC50 [2]: 89.7 nM | Ratio lowest IC50 8hr/IC50 72hr ([3]; 3D7-A10): 1.9 | IC50 ([3]; 3D7, read-out: Early rings Mean IC50 (IC50^8h), 8-h exposure 0–8 hr, 3D7-A10, survival at 60 h): 2760 nM | IC50 ([3]; 3D7, read-out: Early trophozoites Mean IC50 (IC50^8h), 8-h exposure 16–24 hr, 3D7-A10, survival at 60 h): 168 nM | IC50 ([3]; 3D7, read-out: Late rings Mean IC50 (IC50^8h), 8-h exposure 8–16 hr, 3D7-A10, survival at 60 h): 878 nM | IC50 ([3]; 3D7, read-out: Late trophozoites Mean IC50 (IC50^8h), 8-h exposure 24–32 hr, 3D7-A10, survival at 60 h): 199 nM | IC50 ([3]; 3D7, read-out: Schizonts Mean IC50 (IC50^8h), 8-h exposure 32–40 hr, 3D7-A10, survival at 60 h): 4340 nM | Stage of peak activity (Figure 6) ([3]; period when the parasite was most susceptible (lowest IC50^8h)): trophozoites | Peak Activity (Table S1) ([3]; stage(s) with the lowest IC50^8h): Trophs
